According to ChEMBL document CHEMBL4387741, “Optimization of novel reversible Bruton's tyrosine kinase inhibitors identified using Tethering-fragment-based screens” (Bioorg Med Chem, 2019):

Key:
[1] = target: Cyclin-G-associated kinase (Homo sapiens) (UniProt O14976); assay: Inhibition of wild-type human partial length GAK (G13 to Y338 residues) expressed in bacterial expression system at 1 uM by Kinomescan method relative to control
[2] = target: Serine/threonine-protein kinase PAK 3 (Homo sapiens) (UniProt O75914); assay: Inhibition of wild-type human full length PAK3 (M1 to R544 residues) expressed in bacterial expression system at 1 uM by Kinomescan method relative to control
[3] = target: Calcium/calmodulin-dependent protein kinase type 1G (Homo sapiens) (UniProt Q96NX5); assay: Inhibition of wild-type human partial length CAMK1G (M1 to A342 residues) expressed in bacterial expression system at 1 uM by Kinomescan method relative to control
[4] = target: Cyclin-dependent kinase 11A (Homo sapiens) (UniProt Q9UQ88); assay: Inhibition of wild-type human partial length CDC2L2 (D391 to K730 residues) expressed in bacterial expression system at 1 uM by Kinomescan method relative to control
[5] = target: Mitogen-activated protein kinase kinase kinase kinase 5 (Homo sapiens) (UniProt Q9Y4K4); assay: Inhibition of wild-type human partial length MAP4K5 (M1 to P297 residues) expressed in bacterial expression system at 1 uM by Kinomescan method relative to control
[6] = target: Serine/threonine-protein kinase 17B (Homo sapiens) (UniProt O94768); assay: Inhibition of wild-type human full length DRAK2 (M1 to C372 residues) expressed in bacterial expression system at 1 uM by Kinomescan method relative to control
[7] = target: Mitogen-activated protein kinase kinase kinase 3 (Homo sapiens) (UniProt Q99759); assay: Inhibition of wild-type human partial length MAP3K3 (E320 to Y626 residues) expressed in mammalian expression system at 1 uM by Kinomescan method relative to control
[8] = test system: Epidermal growth factor receptor (Homo sapiens), P00533 [G719S]; assay: Inhibition of human partial length EGFR G719S mutant (R669 to V1011 residues) expressed in bacterial expression system at 1 uM by Kinomescan method relative to control
[9] = target: Angiopoietin-1 receptor (Homo sapiens) (UniProt Q02763); assay: Inhibition of wild-type human partial length TIE2 (N804 to T1112 residues) expressed in bacterial expression system at 1 uM by Kinomescan method relative to control
[10] = target: Serine/threonine-protein kinase pim-2 (Homo sapiens) (UniProt Q9P1W9); assay: Inhibition of wild-type human partial length PIM2 (M1 to E291 residues) expressed in bacterial expression system at 1 uM by Kinomescan method relative to control
[11] = target: Dual specificity mitogen-activated protein kinase kinase 2 (Homo sapiens) (UniProt P36507); assay: Inhibition of wild-type human full length MEK2 (M1 to V400 residues) expressed in mammalian expression system at 1 uM by Kinomescan method relative to control
[12] = target: Tyrosine-protein kinase receptor UFO (Homo sapiens) (UniProt P30530); assay: Inhibition of wild-type human partial length AXL (R497 to Y821 residues) expressed in bacterial expression system at 1 uM by Kinomescan method relative to control
[13] = test system: Phosphatidylinositol 4,5-bisphosphate 3-kinase catalytic subunit alpha isoform (Homo sapiens), P42336 [M1043I]; assay: Inhibition of human partial length PIK3CA M1043I mutant (R108 to N1068 residues) expressed in mammalian expression system at 1 uM by Kinomescan method relative to control
[14] = target: Mitogen-activated protein kinase kinase kinase kinase 2 (Homo sapiens) (UniProt Q12851); assay: Inhibition of wild-type human partial length MAP4K2 (M1 to G318 residues) expressed in mammalian expression system at 1 uM by Kinomescan method relative to control
[15] = target: RAC-beta serine/threonine-protein kinase (Homo sapiens) (UniProt P31751); assay: Inhibition of wild-type human partial length AKT2 expressed in bacterial expression system at 1 uM by Kinomescan method relative to control
[16] = target: Cyclin-dependent kinase 4/cyclin D1 (Homo sapiens) (UniProt P11802+P24385); assay: Inhibition of wild-type human full length CDK4/cyclinD1 (M1 to E303 residues) expressed in mammalian expression system at 1 uM by Kinomescan method relative to control
[17] = target: Mitogen-activated protein kinase kinase kinase kinase 1 (Homo sapiens) (UniProt Q92918); assay: Inhibition of wild-type human full length HPK1 (M1 to R799 residues) expressed in bacterial expression system at 1 uM by Kinomescan method relative to control
[18] = target: TRAF2 and NCK-interacting protein kinase (Homo sapiens) (UniProt Q9UKE5); assay: Inhibition of wild-type human partial length TNIK (D4 to K311 residues) expressed in bacterial expression system at 1 uM by Kinomescan method relative to control
[19] = target: Vascular endothelial growth factor receptor 1 (Homo sapiens) (UniProt P17948); assay: Inhibition of wild-type human partial length FLT1 (R781 to F1239 residues) expressed in bacterial expression system at 10 uM by Kinomescan method relative to control
[20] = target: Platelet-derived growth factor receptor alpha (Homo sapiens) (UniProt P16234); assay: Inhibition of wild-type human partial length PDGFRA (V575 to D1002 residues) expressed in mammalian expression system at 10 uM by Kinomescan method relative to control
[21] = target: Dual specificity mitogen-activated protein kinase kinase 4 (Homo sapiens) (UniProt P45985); assay: Inhibition of wild-type human partial length MEK4 (S84 to D399 residues) expressed in mammalian expression system at 10 uM by Kinomescan method relative to control
[22] = target: Phosphatidylinositol 3-kinase C2 domain-containing subunit gamma (Homo sapiens) (UniProt O75747); assay: Inhibition of wild-type human partial length PIK3C2G (M1 to I1446 residues) expressed in mammalian expression system at 10 uM by Kinomescan method relative to control
[23] = target: Proto-oncogene tyrosine-protein kinase receptor Ret (Homo sapiens) (UniProt P07949); assay: Inhibition of wild-type human partial length RET (E713 to D1014 residues) expressed in bacterial expression system at 10 uM by Kinomescan method relative to control
[24] = target: Ribosomal protein S6 kinase alpha-6 (Homo sapiens) (UniProt Q9UK32); assay: Inhibition of wild-type human partial length C-terminal RSK4 kinase domain 2 (I401 to Y711 residues) expressed in bacterial expression system at 10 uM by Kinomescan method relative to control
[25] = target: Dual specificity mitogen-activated protein kinase kinase 2 (Homo sapiens) (UniProt P36507); assay: Inhibition of wild-type human full length MEK2 (M1 to V400 residues) expressed in mammalian expression system at 10 uM by Kinomescan method relative to control
[26] = target: Mitogen-activated protein kinase kinase kinase 20 (Homo sapiens) (UniProt Q9NYL2); assay: Inhibition of wild-type human partial length ZAK (M1 to L331 residues) expressed in bacterial expression system at 10 uM by Kinomescan method relative to control
[27] = target: Serine/threonine-protein kinase Nek9 (Homo sapiens) (UniProt Q8TD19); assay: Inhibition of wild-type human partial length NEK9 (P32 to R328 residues) expressed in bacterial expression system at 10 uM by Kinomescan method relative to control

Dual specificity mitogen-activated protein kinase kinase 2 (Homo sapiens), sequence (P36507 whole entry, the tested form may be a part): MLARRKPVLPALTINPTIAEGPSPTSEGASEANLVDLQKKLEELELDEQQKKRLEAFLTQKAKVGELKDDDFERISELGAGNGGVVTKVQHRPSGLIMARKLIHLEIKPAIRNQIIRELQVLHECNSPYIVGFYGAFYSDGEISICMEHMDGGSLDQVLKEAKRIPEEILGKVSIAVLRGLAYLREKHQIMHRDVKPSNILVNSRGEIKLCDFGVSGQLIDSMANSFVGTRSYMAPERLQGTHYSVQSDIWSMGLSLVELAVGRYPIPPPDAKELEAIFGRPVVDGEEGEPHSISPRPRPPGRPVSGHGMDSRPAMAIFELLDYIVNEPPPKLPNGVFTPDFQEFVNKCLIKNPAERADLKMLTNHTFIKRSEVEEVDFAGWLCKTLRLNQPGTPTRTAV
Angiopoietin-1 receptor (Homo sapiens), sequence (Q02763 whole entry, the tested form may be a part): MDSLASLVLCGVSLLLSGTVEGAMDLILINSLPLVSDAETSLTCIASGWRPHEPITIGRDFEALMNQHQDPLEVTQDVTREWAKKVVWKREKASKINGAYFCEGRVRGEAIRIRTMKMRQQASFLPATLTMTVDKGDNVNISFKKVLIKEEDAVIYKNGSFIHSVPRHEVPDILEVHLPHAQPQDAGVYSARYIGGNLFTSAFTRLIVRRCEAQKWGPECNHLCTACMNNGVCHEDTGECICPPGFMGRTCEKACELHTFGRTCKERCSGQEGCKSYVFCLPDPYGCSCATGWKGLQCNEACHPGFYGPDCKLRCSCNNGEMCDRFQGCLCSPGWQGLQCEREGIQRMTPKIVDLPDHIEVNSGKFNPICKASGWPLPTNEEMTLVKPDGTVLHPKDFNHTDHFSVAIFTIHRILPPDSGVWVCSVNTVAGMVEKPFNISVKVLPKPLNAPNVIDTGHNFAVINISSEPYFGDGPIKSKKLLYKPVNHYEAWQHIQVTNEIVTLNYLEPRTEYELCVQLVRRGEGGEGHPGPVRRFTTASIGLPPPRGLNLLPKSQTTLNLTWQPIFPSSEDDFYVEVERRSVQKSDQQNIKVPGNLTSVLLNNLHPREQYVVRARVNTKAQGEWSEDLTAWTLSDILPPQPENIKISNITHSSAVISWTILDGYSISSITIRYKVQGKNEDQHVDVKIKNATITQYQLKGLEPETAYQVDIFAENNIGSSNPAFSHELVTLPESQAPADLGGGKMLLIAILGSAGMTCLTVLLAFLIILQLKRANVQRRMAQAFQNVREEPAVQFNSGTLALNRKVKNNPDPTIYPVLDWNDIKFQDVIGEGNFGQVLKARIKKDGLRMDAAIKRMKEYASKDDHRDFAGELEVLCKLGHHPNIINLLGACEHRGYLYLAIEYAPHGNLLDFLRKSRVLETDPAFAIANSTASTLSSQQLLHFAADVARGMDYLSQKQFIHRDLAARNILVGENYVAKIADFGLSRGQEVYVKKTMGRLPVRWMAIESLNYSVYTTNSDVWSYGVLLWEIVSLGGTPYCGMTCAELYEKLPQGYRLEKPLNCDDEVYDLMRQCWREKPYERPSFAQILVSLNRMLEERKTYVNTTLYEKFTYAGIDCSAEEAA
Mitogen-activated protein kinase kinase kinase kinase 1 (Homo sapiens), sequence (Q92918 whole entry, looked up, the tested form may be a part): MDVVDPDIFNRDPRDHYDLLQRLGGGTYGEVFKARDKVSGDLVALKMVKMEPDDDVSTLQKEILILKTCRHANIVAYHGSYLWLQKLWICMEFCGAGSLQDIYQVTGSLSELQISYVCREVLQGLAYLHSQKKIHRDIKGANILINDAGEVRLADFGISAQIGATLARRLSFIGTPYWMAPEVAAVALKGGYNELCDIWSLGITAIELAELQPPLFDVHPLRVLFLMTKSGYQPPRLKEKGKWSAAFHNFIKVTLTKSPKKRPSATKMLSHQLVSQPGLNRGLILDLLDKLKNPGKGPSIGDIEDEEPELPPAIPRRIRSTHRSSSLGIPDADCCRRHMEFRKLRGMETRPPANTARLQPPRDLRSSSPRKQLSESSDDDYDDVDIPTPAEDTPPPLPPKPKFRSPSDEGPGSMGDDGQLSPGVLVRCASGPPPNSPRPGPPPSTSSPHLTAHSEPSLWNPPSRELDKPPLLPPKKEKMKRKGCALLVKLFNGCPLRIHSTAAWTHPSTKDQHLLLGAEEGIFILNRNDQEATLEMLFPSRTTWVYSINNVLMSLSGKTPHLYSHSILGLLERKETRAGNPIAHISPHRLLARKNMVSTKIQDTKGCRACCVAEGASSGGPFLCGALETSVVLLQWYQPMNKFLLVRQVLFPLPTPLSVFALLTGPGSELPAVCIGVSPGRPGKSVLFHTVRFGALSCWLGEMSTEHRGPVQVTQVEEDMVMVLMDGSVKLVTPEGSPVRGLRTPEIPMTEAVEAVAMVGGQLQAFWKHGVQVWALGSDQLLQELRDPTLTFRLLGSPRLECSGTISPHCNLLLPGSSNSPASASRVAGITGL
Ribosomal protein S6 kinase alpha-6 (Homo sapiens), sequence (Q9UK32 whole entry, the tested form may be a part): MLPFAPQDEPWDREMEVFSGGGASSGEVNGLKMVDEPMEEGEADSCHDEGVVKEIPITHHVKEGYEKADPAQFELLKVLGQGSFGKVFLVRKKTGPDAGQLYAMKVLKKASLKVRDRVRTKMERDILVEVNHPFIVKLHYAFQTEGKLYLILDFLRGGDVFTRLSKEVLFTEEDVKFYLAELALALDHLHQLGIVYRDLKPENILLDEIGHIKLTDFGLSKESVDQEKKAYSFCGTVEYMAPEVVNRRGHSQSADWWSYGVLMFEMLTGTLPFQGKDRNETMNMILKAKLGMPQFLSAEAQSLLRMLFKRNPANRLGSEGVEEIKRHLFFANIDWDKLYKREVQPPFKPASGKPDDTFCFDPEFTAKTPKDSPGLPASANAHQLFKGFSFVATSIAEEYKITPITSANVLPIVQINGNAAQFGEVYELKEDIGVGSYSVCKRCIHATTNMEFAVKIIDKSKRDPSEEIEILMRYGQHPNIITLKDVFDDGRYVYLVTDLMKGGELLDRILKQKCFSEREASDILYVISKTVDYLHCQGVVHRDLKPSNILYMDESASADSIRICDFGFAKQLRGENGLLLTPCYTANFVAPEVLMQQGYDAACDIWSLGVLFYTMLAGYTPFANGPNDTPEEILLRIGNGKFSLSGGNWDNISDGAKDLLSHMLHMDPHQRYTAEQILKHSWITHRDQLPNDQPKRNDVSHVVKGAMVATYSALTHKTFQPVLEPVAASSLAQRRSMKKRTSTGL
Cyclin-dependent kinase 11A (Homo sapiens), sequence (Q9UQ88 whole entry, the tested form may be a part): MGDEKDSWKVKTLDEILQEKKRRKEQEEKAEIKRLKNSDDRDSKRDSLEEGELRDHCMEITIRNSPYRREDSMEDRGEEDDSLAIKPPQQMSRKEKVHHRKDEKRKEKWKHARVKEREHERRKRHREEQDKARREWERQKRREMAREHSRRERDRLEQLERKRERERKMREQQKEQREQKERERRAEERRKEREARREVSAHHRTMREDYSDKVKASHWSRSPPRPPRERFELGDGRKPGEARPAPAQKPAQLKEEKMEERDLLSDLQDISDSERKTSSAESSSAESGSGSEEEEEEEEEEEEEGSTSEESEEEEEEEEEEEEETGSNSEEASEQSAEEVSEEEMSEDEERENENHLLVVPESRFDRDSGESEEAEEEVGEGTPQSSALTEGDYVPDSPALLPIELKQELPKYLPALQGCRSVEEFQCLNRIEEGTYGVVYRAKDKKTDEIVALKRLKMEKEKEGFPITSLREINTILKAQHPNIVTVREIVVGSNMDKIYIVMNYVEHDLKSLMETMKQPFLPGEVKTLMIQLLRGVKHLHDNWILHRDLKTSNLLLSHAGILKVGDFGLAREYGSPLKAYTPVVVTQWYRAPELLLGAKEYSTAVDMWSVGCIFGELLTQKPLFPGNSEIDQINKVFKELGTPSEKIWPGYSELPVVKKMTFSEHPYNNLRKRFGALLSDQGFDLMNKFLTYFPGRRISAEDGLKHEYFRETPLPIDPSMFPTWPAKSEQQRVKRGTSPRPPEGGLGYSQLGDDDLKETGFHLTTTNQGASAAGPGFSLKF
Phosphatidylinositol 4,5-bisphosphate 3-kinase catalytic subunit alpha isoform (Homo sapiens), P42336 [M1043I], sequence (P42336 whole entry M1043I, the tested form may be a part, canonical isoform): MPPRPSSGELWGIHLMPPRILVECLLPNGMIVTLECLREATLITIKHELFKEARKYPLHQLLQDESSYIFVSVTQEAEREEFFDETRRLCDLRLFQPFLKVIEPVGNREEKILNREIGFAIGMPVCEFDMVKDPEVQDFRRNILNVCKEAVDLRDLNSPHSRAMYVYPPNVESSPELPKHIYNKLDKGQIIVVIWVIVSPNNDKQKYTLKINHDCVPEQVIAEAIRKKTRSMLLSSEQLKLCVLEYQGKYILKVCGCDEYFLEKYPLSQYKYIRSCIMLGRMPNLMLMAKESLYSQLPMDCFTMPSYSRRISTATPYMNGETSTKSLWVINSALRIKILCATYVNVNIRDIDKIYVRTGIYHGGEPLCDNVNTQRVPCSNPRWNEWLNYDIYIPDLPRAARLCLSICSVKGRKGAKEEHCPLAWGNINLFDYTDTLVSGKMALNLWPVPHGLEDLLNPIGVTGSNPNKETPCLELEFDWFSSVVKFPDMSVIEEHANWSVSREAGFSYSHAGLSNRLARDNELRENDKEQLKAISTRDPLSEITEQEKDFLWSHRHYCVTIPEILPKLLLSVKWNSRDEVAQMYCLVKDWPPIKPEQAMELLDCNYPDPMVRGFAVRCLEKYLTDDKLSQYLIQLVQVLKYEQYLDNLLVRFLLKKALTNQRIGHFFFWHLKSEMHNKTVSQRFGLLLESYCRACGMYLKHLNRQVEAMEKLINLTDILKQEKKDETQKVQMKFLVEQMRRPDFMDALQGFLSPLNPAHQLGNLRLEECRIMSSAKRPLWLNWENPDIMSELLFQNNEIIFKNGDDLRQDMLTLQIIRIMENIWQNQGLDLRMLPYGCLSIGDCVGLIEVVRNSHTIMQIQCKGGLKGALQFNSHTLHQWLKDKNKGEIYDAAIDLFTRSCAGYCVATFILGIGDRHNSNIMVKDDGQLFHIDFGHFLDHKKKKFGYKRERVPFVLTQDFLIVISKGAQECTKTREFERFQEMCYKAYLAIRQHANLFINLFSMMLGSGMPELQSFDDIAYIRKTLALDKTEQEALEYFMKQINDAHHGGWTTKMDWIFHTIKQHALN

`O=C(Nc1cccc([C@@H]2CN(c3ncnc4[nH]ccc34)CCN2CCO)c1)Nc1c(F)cccc1N1CCCC1` was tested, and the inhibition [1] was 96%, the inhibition [2] was 72% and the inhibition [3] was 100%. For the same compound, the inhibition [4] was 96%, the inhibition [5] was 91% and the inhibition [6] was 73%. The inhibition [7] was 42%, the inhibition [8] was 90% and the inhibition [9] was 99%. It also gave an inhibition [10] of 100%, an inhibition [11] of 73% and an inhibition [12] of 23%. The inhibition [13] was 94%, the inhibition [14] was 82% and the inhibition [15] was 100%. It also gave an inhibition [16] of 100%, an inhibition [17] of 100% and an inhibition [18] of 81%.

Compound `O=C(Nc1cccc([C@H]2CCCN(c3ncnc4[nH]ccc34)C2)c1)Nc1ccccc1N1CCCC1` has an inhibition [19] of 2.2%, an inhibition [20] of 0.6% and an inhibition [21] of 1.6%. It also gave an inhibition [22] of 89%, an inhibition [23] of 0% and an inhibition [24] of 50%. The inhibition [25] was 17%, the inhibition [26] was 100% and the inhibition [27] was 95%.
